Measurements from ChEMBL document CHEMBL4834398, “Synthesis of Yakuchinone B-Inspired Inhibitors against Islet Amyloid Polypeptide Aggregation” (J Nat Prod, 2021).
Activity calls are given as the source filed them. No cut-off for these calls is given here.

Legend:
BRIN-BD11 [1] = assay: Protective activity against IAPP-induced toxicity in rat […] cells assessed as cell viability at 10 uM after 72 hrs by MTT assay; type: functional, cell-based
BRIN-BD11 [2] = assay: Protective activity against IAPP-induced toxicity in rat […] cells assessed as cell viability at 0.02 to 0.63 uM after 72 hrs by MTT assay; type: functional, cell-based; details: dose 0.02-0.63 µM
[3] = Protective activity against IAPP-induced toxicity in rat BRIN-B11 cells assessed as cell viability after 72 hrs by MTT assay; details: BRIN-BD11, 72 h
[4] = target: T1, Islet amyloid polypeptide (Homo sapiens, UniProt P10997); assay: Inhibition of islet amyloid polypeptide (unknown origin) aggregation after 24 hrs by thioflavin T based fluorescence assay
T1 sequence (P10997 whole entry): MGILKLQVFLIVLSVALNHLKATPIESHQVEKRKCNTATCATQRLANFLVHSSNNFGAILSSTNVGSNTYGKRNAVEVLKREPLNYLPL

For `CCC(=O)/C=C/c1cccc(O)c1O`, the Activity (BRIN-BD11 [1]) was “inactive”.

For `CCCC(=O)/C=C/c1cccc(O)c1O`, the Activity (BRIN-BD11 [2]) was “Active” and the EC50 [3] was 100 nM.

With `CCCCC(=O)/C=C/c1cccc(O)c1O` the Activity (BRIN-BD11 [2]) was “Active” and the EC50 [3] was 200 nM.

Work on `O=c1c(O)c(-c2ccc(O)cc2O)oc2cc(O)cc(O)c12` [MORIN] yielded an EC50 [3] of 1000 nM and an IC50 [4] of 7800 nM.

`CC(=O)CCc1ccc(O)c(O)c1` showed an IC50 [4] greater than 10000 nM.

For `CC(=O)/C=C/c1cccc(O)c1O`, the Activity (BRIN-BD11 [1]) was “inactive”.

For `CC(=O)/C=C/c1ccc(O)c(O)c1`, the IC50 [4] was 3700 nM.
